Reference: patent US20260327233A1, “Heteroaryl Compounds as Ligand Directed Degraders of IRAK4” (Celgene Corporation, priority 2023, published 2026)
Structures can show the parent of a compound that is named as a salt.

Experiments:
IRAK4 [1] = biological target: T1, IRAK4 (Homo sapiens, UniProt Q9NWZ3); assay: ALE THP1 HTRF (IRAK4 HTRF in THP1 cell lysate, Cisbio HTRF kit); format: cell-based; design: THP1 Homogeneous Time Resolved Fluorescence (ALE THP1 HTRF) Procedure; endogenous in cells; host or cells: THP1; details: anti-IRAK4 d2 / anti-IRAK4 k antibodies
T1 sequence (Q9NWZ3 1-460): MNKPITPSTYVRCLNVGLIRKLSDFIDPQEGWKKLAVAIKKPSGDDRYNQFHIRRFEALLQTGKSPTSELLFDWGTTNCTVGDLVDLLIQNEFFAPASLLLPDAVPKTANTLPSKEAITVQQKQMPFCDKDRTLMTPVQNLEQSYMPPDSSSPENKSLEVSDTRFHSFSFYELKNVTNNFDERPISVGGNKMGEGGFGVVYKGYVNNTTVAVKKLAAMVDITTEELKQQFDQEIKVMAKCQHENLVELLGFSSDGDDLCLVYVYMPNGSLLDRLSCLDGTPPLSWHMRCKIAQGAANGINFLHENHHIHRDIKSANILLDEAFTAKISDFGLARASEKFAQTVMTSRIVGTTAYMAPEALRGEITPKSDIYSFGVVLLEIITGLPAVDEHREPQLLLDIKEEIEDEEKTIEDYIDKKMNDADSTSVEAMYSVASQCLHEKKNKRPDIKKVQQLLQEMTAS
Experimental: Cell culture media was prepared in a tissue culture hood in a sterile environment by adding 10% FBS and 1% Penicillin Streptomycin to 500 mL no phenol red RPMI 1640 media. The media was filtered through a Nalgene Bottle Top Filter and stored at 4° C.
For Homogenous Time Resolved Fluorescence (HTRF) assays, a Cisbio HTRF kit was used, which included: Lysis Buffer #1 4×, Blocking Reagent #3 100×, 20× Antibody 1 (Anti-IRAK4 d2), 20× Antibody 2 (Anti-IRAK4 k), and Detection Buffer.
4× Lysis Buffer was stored at 4° C. For use as 1× Lysis buffer, the 4× solution was diluted with de-ionized water (distilled water, Gibco Cat. #15230279) and 100× Blocking Reagent in a 1:3:0.04 volume ratio.
20× Antibody Solution aliquots were stored at −80° C. and the Detection Buffer was stored at 4° C. For use as a 1× Antibody Solution, the 20× Antibody Solution aliquot was diluted with Detection Buffer in a 1:19 volume ratio.
Cells were lysed at room temperature for 45 min with shaking. A BCA protein assay was performed and normalization was conducted to the desired total protein concentration with 1× lysis buffer. Next, 1× Antibody Solutions were prepared by adding 380 μL Detection Buffer to 20 μL 20× Antibody Solution aliquots and mixing well. 1× Antibody Solutions were combined 1:1 and briefly vortexed. For control wells, 20 μL 1× anti IRAK4-k Antibody Solution was saved. The 384-well plate (ProxiPlate-384 Plus, Perkin Elmer Cat. #6008289) was loaded by adding 4 μL of the mixed Antibody Solution to empty wells using a single channel repeater. Using a multi-channel repeater, 16 μL lysate was added per well, and any bubbles that were formed were popped with 20 μL pipette tips and Kimwipe edges. In column 10, triplicates of each control were prepared. In wells A10, B10, and C10, buffer control was prepared by adding 16 μL Lysis Buffer and 4 μL Detection Buffer. In wells D10, E10, and F10, cryptate control was prepared by adding 16 μL Lysis Buffer, 2 μL Detection Buffer, and 2 μL 1× anti-IRAK4-k Antibody Solution. In wells G10, H10, and 110, a negative control was prepared by adding 16 μL Lysis Buffer and 4 μL mixed Antibody Solution. The plate was sealed with a clear seal and covered with an aluminum lid. The plate was spun down at 800 g for 5 min and incubated in the dark at room temperature overnight. The next day, the plate was spun down at 800 g for 5 min. The samples were analyzed by a plate reader (Envision, PerkinElmer) using the Desnor 384 HTRF program.

IRAK4 [2] = biological target: T1, IRAK4; assay: IRAK4 PhosphoSens Biochemical Assay (BIOCHEM); details: IRAK4 1 nM; ATP and Sox conjugated peptide substrate AQT0326; pH 7.5; room temperature; 240 minutes
Experimental: The PhosphoSens® biochemical assay was performed as described by the vendor (AssayQuant Technologies Inc. Marlborough, MA). A 1.25× stock solution of IRAK4 (PV4002, ThermoFisher Scientific, Waltham, MA) and a 5× stock solution of ATP and Sox conjugated peptide substrate, AQT0326 (CSKS-AQT0326B, AssayQuant Technologies), were prepared in 1× kinase reaction buffer consisting of 50 mM HEPES, pH 7.5, 0.01% Brij-35, 0.5 mM EGTA, 20 mM MgCl2 and 1 mM DTT. 10 μL of the ATP and substrate solution mix, for a final concentration of 200 µM ATP and […] peptide substrate, was added to a Corning 3574 384-well, white, non-binding surface microtiter plate containing 0.5 μL of serially diluted test compounds prepared in DMSO. The reactions were started with the addition of 40 μL of the enzyme solution, for a final IRAK4 concentration of 1 nM, and monitored every 71 seconds for 240 minutes at λEX 360/λEM 485 in a BioTek Synergy H4 plate reader (Agilent Technologies, Santa Clara, CA) at room temperature. The initial linear portions of the progress curves were fit according to a linear equation to yield the slopes and converted to % inhibition based on a value of 100% activity for the no inhibitor treated control. IC50 values of each compound were obtained by fitting the % inhibition-compound concentration curves using Dotmatics software (Dotmatics, Bishops Stortford, Hertfordshire, England),

Row | Compound | EC50 (IRAK4 [1]) | ALE THP1 HTRF YMIN (IRAK4 [1]) | IC50 (IRAK4 [2])
1 | N#Cc1nn(C2CCC(C(=O)NC3CCN(c4ccc5c(c4)C(=O)N(C4CCC(=O)NC4=O)C5=O)CC3)CC2)cc1NC(=O)c1cnn2ccc(N3CCNCC3)nc12 (stereo not drawn) [Compound P-3] | > 10000 nM | 54% | 4.3 nM
2 | N#Cc1nn([C@H]2CC[C@H](CN3CCC(c4ccc5c(c4)C(=O)N(C4CCC(=O)NC4=O)C5=O)CC3)CC2)cc1NC(=O)c1cnn2ccc(N3CCNCC3)nc12 (stereo partly drawn) [Compound P-17] | > 10000 nM | >95% | 1.2 nM
3 | N#Cc1nn(C2CCC(C(=O)N3CCC(c4ccc5c(c4)C(=O)N(C4CCC(=O)NC4=O)C5=O)CC3)CC2)cc1NC(=O)c1cnn2ccc(N3CCNCC3)nc12 (stereo not drawn) [Compound P-12] | 4280 nM | 66% | 0.5 nM
4 | N#Cc1nn(C2CCC(C(=O)N3CCN(c4ccc5c(c4)C(=O)N(C4CCC(=O)NC4=O)C5)CC3)CC2)cc1NC(=O)c1cnn2ccc(N3CCNCC3)nc12 (stereo not drawn) [Compound P-2] | > 10000 nM | 63% | 15.3 nM
5 | N[C@@H]1C[C@@H](F)CN(c2ccn3ncc(C(=O)Nc4cn([C@H]5CC[C@H](C(=O)N6CCN(c7ccc8c(c7)C(=O)N(C7CCC(=O)NC7=O)C8=O)CC6)CC5)nc4C(F)(F)F)c3n2)C1 (stereo partly drawn) [Compound P-13, 5-[(3R,5R)-3-Amino-5-fluoro-1-piperidyl]-N-[1-[4-[4-[2-(2,6-dioxo-3-piperidyl)-1,3-dioxo-isoindolin-5-yl]piperazine-1-carbonyl]cyclohexyl]-3-(trifluoromethyl)pyrazol-4-yl]pyrazolo[1,5-a]pyrimidine-3-carboxamide] | 8 nM | 24% | < 0.5 nM
6 | N#Cc1nn(C2CCC(C(=O)N3CCN(c4ccc5c(c4)C(=O)N(C4CCC(=O)NC4=O)C5=O)CC3)CC2)cc1NC(=O)c1cnn2ccc(N3C[C@H](N)C[C@@H](F)C3)nc12 (stereo partly drawn) [Compound P-8] | 8.9 nM | 33% | < 0.5 nM
7 | N#Cc1nn([C@H]2CC[C@H](C(=O)N3CCN(c4ccc5c(c4)C(=O)N(C4CCC(=O)NC4=O)C5=O)CC3)CC2)cc1NC(=O)c1cnn2ccc(N3CCC[C@@H](O)C3)nc12 (stereo partly drawn) [Compound P-11] | > 10000 nM | 74% | 0.5 nM
8 | N#Cc1nn(C2CCC(C(=O)N3CCN(c4ccc5c(c4)C(=O)N(C4CCC(=O)NC4=O)C5)CC3)CC2)cc1NC(=O)c1cnn2ccc(N3C[C@H](N)C[C@@H](F)C3)nc12 (stereo partly drawn) [Compound P-18] | > 10000 nM | 69% | < 0.5 nM

Second part, the molecule after the results:

Row | EC50 (IRAK4 [1]) | ALE THP1 HTRF YMIN (IRAK4 [1]) | IC50 (IRAK4 [2]) | Compound
9 | 4 nM | 10% | < 0.5 nM | N[C@@H]1C[C@@H](F)CN(c2ccn3ncc(C(=O)Nc4cn([C@H]5CC[C@H](NC(=O)C6CCN(c7ccc8c(c7)C(=O)N(C7CCC(=O)NC7=O)C8=O)CC6)CC5)nc4C(F)F)c3n2)C1 (stereo partly drawn) [Compound P-29, 5-[(3R,5R)-3-Amino-5-fluoro-1-piperidyl]-N-[3-(difluoromethyl)-1-[4-[[1-[2-(2,6-dioxo-3-piperidyl)-1,3-dioxo-isoindolin-5-yl]piperidine-4-carbonyl]amino]cyclohexyl]pyrazol-4-yl]pyrazolo[1,5-a]pyrimidine-3-carboxamide hydrochloride]
10 | 8 nM | 20% | < 0.5 nM | N#Cc1nn([C@H]2CC[C@H](C(=O)NC3CCN(c4ccc5c(c4)C(=O)N(C4CCC(=O)NC4=O)C5=O)CC3)CC2)cc1NC(=O)c1cnn2ccc(N3C[C@H](N)C[C@@H](F)C3)nc12 (stereo partly drawn) [Compound P-23]
11 | 11 nM | 22% | < 0.5 nM | N[C@@H]1C[C@@H](F)CN(c2ccn3ncc(C(=O)Nc4cn([C@H]5CC[C@H](C(=O)NC6CCN(c7ccc8c(c7)C(=O)N(C7CCC(=O)NC7=O)C8=O)CC6)CC5)nc4C(F)(F)F)c3n2)C1 (stereo partly drawn) [Compound P-20]
12 | 8 nM | 10% | < 0.5 nM | N[C@@H]1C[C@@H](F)CN(c2ccn3ncc(C(=O)Nc4cn([C@H]5CC[C@H](CCN6CCN(c7ccc8c(c7)CN(C7CCC(=O)NC7=O)C8=O)CC6)CC5)nc4C(F)F)c3n2)C1 (stereo partly drawn) [Compound P-30, N-[3-(Difluoromethyl)-1-[4-[2-[4-[2-(2,6-dioxo-3-piperidyl)-1-oxo-isoindolin-5-yl]piperazin-1-yl]ethyl]cyclohexyl]pyrazol-4-yl]-5-[(3R,5R)-3-amino-5-fluoro-1-piperidyl]pyrazolo[1,5-a]pyrimidine-3-carboxamide dihydrochloride]
13 | 6 nM | 29% | < 0.5 nM | N[C@@H]1C[C@@H](F)CN(c2ccn3ncc(C(=O)Nc4cn([C@H]5CC[C@H](CN6CCN(c7ccc8c(c7)C(=O)N(C7CCC(=O)NC7=O)C8=O)CC6)CC5)nc4C(F)F)c3n2)C1 (stereo partly drawn) [Compound P-26]
14 | 24 nM | 68% | 9.4 nM | C[C@@H]1CN(c2ccn3ncc(C(=O)Nc4cn([C@H]5CC[C@H](C(=O)NC6CCN(c7ccc8c(c7)CN(C7CCC(=O)NC7=O)C8=O)CC6)CC5)nc4C(F)F)c3n2)C[C@H](C)O1 (stereo partly drawn) [Compound P-33]
15 | > 10000 nM | >95% | > 1 nM | Cc1c(NC(=O)c2cnn3ccc(N4C[C@H](N)C[C@@H](F)C4)nc23)cnn1[C@H]1CC[C@H](C(=O)NC2CCN(c3ccc4c(c3)C(=O)N(C3CCC(=O)NC3=O)C4=O)CC2)CC1 (stereo partly drawn) [Compound P-28]
16 | 5 nM | 18% | < 0.5 nM | N[C@@H]1C[C@@H](F)CN(c2ccn3ncc(C(=O)Nc4cn([C@H]5CC[C@H](C(=O)N6CCN(c7ccc8c(c7)C(=O)N(C7CCC(=O)NC7=O)C8)CC6)CC5)nc4C(F)F)c3n2)C1 (stereo partly drawn) [Compound P-21]
17 | 7 nM | 11% | < 0.5 nM | N[C@@H]1C[C@@H](F)CN(c2ccn3ncc(C(=O)Nc4cn([C@H]5CC[C@H](C(=O)NC6CCN(c7ccc8c(c7)C(=O)N(C7CCC(=O)NC7=O)C8)CC6)CC5)nc4C(F)F)c3n2)C1 (stereo partly drawn) [Compound P-25]
18 | 6 nM | 10% | < 0.5 nM | N[C@@H]1C[C@@H](F)CN(c2ccn3ncc(C(=O)Nc4cn(C5CCN(CCN6CCN(c7ccc8c(c7)CN(C7CCC(=O)NC7=O)C8=O)CC6)CC5)nc4C(F)F)c3n2)C1 (stereo partly drawn) [Compound P-38, N-[3-(difluoromethyl)-1-[1-[2-[4-[2-(2,6-dioxo-3-piperidyl)-1-oxo-isoindolin-5-yl]piperazin-1-yl]ethyl]-4-piperidyl]pyrazol-4-yl]-5-[(3R,5R)-3-amino-5-fluoro-1-piperidyl]pyrazolo[1,5-a]pyrimidine-3-carboxamide]
